Measurements reported in PubChem BioAssay (NCI).
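Assay format: 96-well plates, 48-hour exposure. GI50 marks 50% less growth. The concentration for full growth arrest is given as TGI.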

How the values were obtained:
Assay in all cases: growth of human tumour cells (NCI), 48 h
SNB-19 CNS = tested on: SNB-19 CNS
HCC-2998 colon = tested on: HCC-2998 colon
HT29 colon = tested on: HT29 colon
SK-MEL-2 melanoma = tested on: SK-MEL-2 melanoma
MDA-MB-231 breast = tested on: MDA-MB-231 breast
A498 renal = tested on: A498 renal
HCT-116 colon = tested on: HCT-116 colon
M14 melanoma = tested on: M14 melanoma
DMS 273 small cell lung = tested on: DMS 273 small cell lung
DLD-1 colon = tested on: DLD-1 colon

## O=C(Nc1cc(F)c(F)cc1C(=O)O)c1ccc(-n2ccnc2)nn1
SNB-19 CNS
  GI50: > 100 µM
  TGI: > 100 µM
HCC-2998 colon
  GI50: > 100 µM
  TGI: > 100 µM
HT29 colon
  GI50: > 100 µM
  TGI: > 100 µM
SK-MEL-2 melanoma
  GI50: > 100 µM
  TGI: > 100 µM
MDA-MB-231 breast
  GI50: > 100 µM
  TGI: > 100 µM
A498 renal
  GI50: 13 µM
  TGI: 82 µM
HCT-116 colon
  GI50: > 100 µM
  TGI: > 100 µM
M14 melanoma
  GI50: > 100 µM
  TGI: > 100 µM

## Clc1cccc(CNc2c3ccccc3nc3ccccc23)c1
SNB-19 CNS
  GI50: 2.89 µM
  TGI: 12.4 µM
HCC-2998 colon
  GI50: 1.65 µM
  TGI: 3.19 µM
HT29 colon
  GI50: 1.98 µM
  TGI: 10.2 µM
SK-MEL-2 melanoma
  GI50: 2 µM
  TGI: 4.22 µM
MDA-MB-231 breast
  GI50: 1.91 µM
  TGI: 4.75 µM
A498 renal
  GI50: 1.3 µM
  TGI: 2.67 µM
HCT-116 colon
  GI50: 1.35 µM
  TGI: 3.41 µM
M14 melanoma
  GI50: 1.53 µM
  TGI: 3.02 µM

## COc1ccc(-c2cc(-c3ccc(Cl)cc3)nc(NCCCCNc3ccnc4cc(Cl)ccc34)n2)cc1
SNB-19 CNS
  GI50: 11 µM
  TGI: 25.7 µM
HCC-2998 colon
  GI50: 1.93 µM
  TGI: 3.71 µM
HT29 colon
  GI50: 1.68 µM
  TGI: 3.57 µM
SK-MEL-2 melanoma
  GI50: 20.3 µM
  TGI: 52.8 µM
MDA-MB-231 breast
  GI50: 1.72 µM
  TGI: 3.28 µM
A498 renal
  GI50: 4.17 µM
  TGI: 17.4 µM
HCT-116 colon
  GI50: 1.5 µM
  TGI: 2.92 µM
M14 melanoma
  GI50: 2.34 µM
  TGI: 6.3 µM

## COc1ccc(C(=O)c2cc3c(N)c(C(=O)Nc4cccc(Br)c4C)sc3nc2C)cc1
SNB-19 CNS
  GI50: 0.0541 µM
  TGI: > 100 µM
HCC-2998 colon
  GI50: 0.302 µM
  TGI: > 100 µM
HT29 colon
  GI50: 0.0509 µM
  TGI: > 100 µM
SK-MEL-2 melanoma
  GI50: 1.54 µM
  TGI: > 100 µM
MDA-MB-231 breast
  GI50: 0.13 µM
  TGI: 17.3 µM
A498 renal
  GI50: 0.0238 µM
  TGI: 0.26 µM
HCT-116 colon
  GI50: 0.038 µM
M14 melanoma
  GI50: 0.0267 µM
  TGI: > 100 µM

## Nc1nc2c(-c3ccc([N+](=O)[O-])cc3)nnn2c2ccccc12
SNB-19 CNS
  TGI: > 100 µM
HCC-2998 colon
  TGI: > 100 µM
DMS 273 small cell lung
  TGI: > 100 µM
DLD-1 colon
  TGI: > 100 µM
HT29 colon
  TGI: > 100 µM
SK-MEL-2 melanoma
  TGI: > 100 µM
A498 renal
  TGI: > 100 µM
M14 melanoma
  TGI: > 100 µM

## COc1ccc(-c2cn(-c3ccc(OC)c(OC)c3)c(=O)[nH]2)cc1
SNB-19 CNS
  GI50: > 100 µM
  TGI: > 100 µM
HCC-2998 colon
  GI50: > 100 µM
  TGI: > 100 µM
HT29 colon
  GI50: 65.1 µM
  TGI: > 100 µM
SK-MEL-2 melanoma
  GI50: > 100 µM
  TGI: > 100 µM
MDA-MB-231 breast
  GI50: > 100 µM
  TGI: > 100 µM
A498 renal
  GI50: > 100 µM
  TGI: > 100 µM
HCT-116 colon
  GI50: > 100 µM
  TGI: > 100 µM
M14 melanoma
  GI50: > 100 µM
  TGI: > 100 µM

## CCc1cc2c(O)c(c1)Cc1cc(CC)cc(c1O)Cc1cc(CC)cc(c1O)Cc1cc(CC)cc(c1O)Cc1cc(CC)cc(c1O)Cc1cc(CC)cc(c1O)Cc1cc(CC)cc(c1O)C2
SNB-19 CNS
  TGI: 71.7 µM
HCC-2998 colon
  TGI: > 100 µM
DMS 273 small cell lung
  TGI: > 100 µM
DLD-1 colon
  TGI: > 100 µM
HT29 colon
  TGI: > 100 µM
SK-MEL-2 melanoma
  TGI: > 100 µM
HCT-116 colon
  TGI: > 100 µM
M14 melanoma
  TGI: > 100 µM

## O=C(NCCOCCOCCOCCNC(=O)c1cc2c(o1)C(=O)c1ccccc1C2=O)NC12CC3CC(CC(C3)C1)C2
SNB-19 CNS
  GI50: 2.06 µM
  TGI: 8.03 µM
HCC-2998 colon
  GI50: 1.99 µM
  TGI: 4.02 µM
HT29 colon
  GI50: 2.6 µM
  TGI: 6.79 µM
SK-MEL-2 melanoma
  GI50: 2.15 µM
  TGI: 5.46 µM
MDA-MB-231 breast
  GI50: 3.04 µM
  TGI: 16.6 µM
A498 renal
  GI50: 1.69 µM
  TGI: 3.3 µM
HCT-116 colon
  GI50: 2.4 µM
  TGI: 8.95 µM
M14 melanoma
  GI50: 0.462 µM
  TGI: 1.8 µM
